# Measurements as given in a melting point compilation (Tetko et al.; mined from patent text by program, amines drawn as free bases though some values may be those of a salt).
row,melting point [°C],Structure (SMILES)
1,200 to 203,C#Cc1cccc(Nc2ncnc3cnc(NCc4ccc(OC)cc4)cc23)c1
2,109 to 111,CCCc1cccc2sc(Sc3ccc4c(c3)CC[C@H]3N(C)C(=O)CC[C@]43C)nc12
3,122 to 124,Cc1cccc2c1N(C)CS2=O (stereo unspecified)
4,170 to 172,COC(=O)c1ccc2c(c1)C(=O)CCC2
5,69 to 72,CCCCCCC(=O)c1ccc2cc(OC)ccc2c1
6,105,CN1C(=O)CC(c2ccccc2)C1C(O)c1ccc(Br)s1 (stereo unspecified)
7,92 to 94,CCCCC(=O)c1ccc(OCCCC(=O)O)c(Cl)c1Cl
8,122,COc1ccc(S(N)(=O)=O)cc1C(O)CN=[N+]=[N-] (stereo unspecified)
9,184 to 185,CC(C)N(c1cccc2cc(-c3ncc(CCl)s3)[nH]c12)S(=O)(=O)c1cccs1
10,203 to 204,Cn1c(=O)ccn(C2C=CC(CO)O2)c1=O (stereo unspecified)
11,> 250,O=C(O)c1cc2nc(-c3ccccc3)nn2cc1F
12,94 to 96,Cc1cc(CCCCCOc2ccc(C3=NCCO3)cc2C=CBr)on1
13,200,O=C(O)c1ccccc1-c1n[nH]c(-c2cccc(C(F)(F)F)c2)n1
14,188,CCOC(=O)C1=C(C)Nc2nc(N3CCOCC3)nc(N3CCOCC3)c2C1c1ccccc1OC (stereo unspecified)
15,228 to 229,COc1cccc(CNC(=O)c2nc3scc(CC(=O)O)c3c(=O)[nH]2)c1
16,173 to 174,CSC1=C([N+](=O)[O-])CN(Cc2ccccc2)CN1
17,127 to 132,CN(C)Cc1ccc(CSCCNc2ncc(N)c(=O)[nH]2)o1
18,237 to 239,Nc1ccncc1-c1n[nH]c2ccccc12
19,169 to 171,COc1cc2c(cc1O)CCC1C3=CCC(O)C3(C)CCC21 (stereo unspecified)
20,80,CC(C)(C)OC(=O)C(Nc1ccccc1)C(=O)N1CCCC1 (racemic)
21,102 to 104,O=C(NC/C=C\COc1cc(CN2CCCCC2)ccn1)NC1CC1
22,68 to 69,CCCCCCCCCC(=O)OC1=C(c2nnc(CCCCCCCCC)o2)N(C)S(=O)(=O)c2ccccc21
23,242 to 254,N#Cc1[nH]c2ccc([N+](=O)[O-])cc2c1-c1ccccc1
24,155 to 163,O=C(O)c1nc2n(n1)-c1cccnc1N(c1ccccc1Cl)C2

row,melting point [°C],Structure (SMILES)
1,172,CCNC1=NN(c2cccc(C(F)(F)F)c2)CC1
2,68 to 71,COc1cccc(C2=C(CN(C)C)COc3ccccc32)c1
3,177 to 178,O=C1CCN(C(=O)c2ccc(Cl)cc2Cl)c2ccc(Cl)cc21
4,160 to 162,Fc1ccc([C@H]2CC[C@H](N3CCN(Cc4ccc5ccccc5n4)CC3)CC2)cc1
5,170 to 171,Cn1c(N2CCOCC2)nc(C(=O)NCc2ccc(F)c(Cl)c2)c(O)c1=O
6,56.5 to 58,Clc1cc(Br)c2c(c1)OCCO2
7,70 to 71,CCCCCCCCCCCCS(=O)(=O)N1CCCSC1=C(Br)[N+](=O)[O-]
8,125 to 126,CC(C)(C)OC(=O)N1CCN(C(=O)CCc2cccnc2)CC1
9,157 to 158,Clc1ccc(Nc2ncc(CCc3cccnc3)c3ccccc23)cc1
10,171 to 172,Nc1cccc(-c2cnc(N)nc2)c1
11,146 to 148,NC(=O)C1CCCc2c(C(=O)c3ccccc3)cccc21 (stereo unspecified)
12,182,O=C(N1CC(CCl)c2c1cc([N+](=O)[O-])c1ccccc21)C(F)(F)F (stereo unspecified)
13,> 320,O=C(Nc1ccncc1)c1cc2ccnc(Cl)c2[nH]1
14,182 to 185,C=CCONC(=O)c1nc(-c2ccc(F)cc2)cc(N)c1Cl
15,235 to 242,Cc1cc(-n2ccc(=O)[nH]c2=O)cc(Cl)c1S(=O)(=O)c1ccc(Cl)cc1
16,117 to 118,Cc1ccc(C)c(OCCC(Cl)C(C)(C)C(=O)O)c1 (stereo unspecified)
17,193 to 194,Fc1cccc(F)c1-c1ncc(-c2ccc(Br)cc2)cn1
18,159 to 161,CN(C1CC(C)(C)Oc2ccc(O)cc21)S(C)(=O)=O (stereo unspecified)
19,186 to 188,CCOC(=O)c1cn(-c2ccccc2)c2c([N+](=O)[O-])c(Cl)c(F)cc2c1=O
20,76 to 78,CCOC(=O)C1=CC(CF)(CF)Oc2ccc(Cl)cc21
21,210,Cc1cc(-c2cc(C(F)(F)F)n3cnc(-c4cccnc4)c3n2)ccc1Cl
22,195 to 200,COc1ccc(/C=C/C(=O)/C=C/C(=O)O)c(OC)c1
23,48 to 50,CCCCCCCCCCCCCCCC(=O)NCCCN1CCCCC1C (stereo unspecified)
24,69 to 71,Cc1ccc([N+](=O)[O-])cc1-c1ccccc1

row,melting point [°C],Structure (SMILES)
1,189 to 191,COCc1ncccc1CN(CCn1ccc2oc(C)cc2c1=O)Cc1ccc2c(c1)NC(=O)C(C)(C)C(=O)N2CC1CC1
2,114 to 118,COc1ccc2[nH]c(S(=O)Cc3cc(N4CCCCC4)c(Br)cn3)nc2c1 (stereo unspecified)
3,280 to 300,Cc1c(-c2cnccn2)sc2nc(N)[nH]c(=O)c12
4,106 to 108,CCOc1nc(C(F)(F)F)cc(=O)n1-c1cc(OC(C)C)c(Br)cc1F
5,86.8,CC1Cc2c(cc(C(C)(C)C)c(O)c2C(C)(C)C)O1 (stereo unspecified)
6,167 to 168,Nc1ccc(Sc2cccc3nccn23)cc1
7,244 to 247,CCOC(=O)c1c[nH]c2c(OC)csc2c1=O
8,171,Cc1ccc2c(c1)c(CCNC(=O)c1ccccc1)c1n2C(=O)CCC1
9,173 to 174,CCCCOC(=O)c1ccc(Nc2nc(Nc3ccc(C(=O)OCCCC)cc3)nc(-c3cccn3Cc3ccccc3)n2)cc1
10,47 to 50,CC(C)(C)OC(=O)Nc1cc(OC(C)(C)C)c(-c2ccccc2F)cc1NC(=O)CC(=O)c1cccc(-n2ccnn2)c1
11,210 to 220,Cc1c(Cc2ccc(N3C(=O)C=CC3=O)c(C)c2C)ccc(N2C(=O)C=CC2=O)c1C
12,122 to 123,CCCCOC(=O)NS(=O)(=O)CCc1c(C)nn(C)c1-n1ccc2cc(C(F)(F)F)cnc21
13,220,CCOC(=O)c1c(-c2ccc(O)cc2)nc2ccccn12
14,206 to 215,Clc1ccc2c(c1)SCc1cccnc1C2=C1CCNCC1
15,118 to 121,CC(C)(C)c1cc(OCc2ccc(C#N)cc2)cc(C(C)(C)C)c1
16,202 to 204,CNC(=O)N1CCC(CN2CCC(NC(=O)c3cc(Cl)c(N)cc3OC)CC2)CC1
17,69,COC=C(C(=O)OC)c1ccccc1Oc1ncnc(F)c1F
18,53 to 56,CCC(=O)Nc1c([N+](=O)[O-])cnn1-c1ncc(Cl)cc1Cl
19,302 to 304,COc1ccc2c(ccn3c(=O)c(C(=O)O)cnc23)c1
20,50 to 52,Ic1ccc(OC2CCCC2)cc1
21,144 to 145,CC(C)N(O)C(=O)Cc1ccc2c(c1)C(=O)c1ccccc1CO2
22,240 to 241,COC(=O)c1cc(O)nc2ccccc12
23,111 to 113,O=C1CC2(c3ccccc3)CCCC=C2C(=O)N1CC1CCCCC1 (stereo unspecified)
24,122 to 124,Nc1nc(Cl)nc2c1ncn2C1OC(COC2CC2)C(O)C1O (stereo unspecified)

row,melting point [°C],Structure (SMILES)
1,117 to 118,COc1cc(CCl)c(CCl)cc1OCCCl
2,267 to 268,O=C(O)c1cnc2n(c1=O)CCCC2=NNc1ccccc1
3,71.8,COC(=O)C1CCc2cc(F)cc(C(F)(F)F)c2O1 (stereo unspecified)
4,95 to 105,O=C(CN1CCN(C(=O)c2cc(C(F)(F)F)cc(C(F)(F)F)c2)[C@H](Cc2c[nH]c3ccccc23)C1)c1ccc(F)cc1
5,203 to 204,CN(C)C(=O)Nc1snc(N(C)C)c1C#N
6,65 to 68,CON=C(C)Cc1sc2ccc(Cl)cc2c1Cl
7,48 to 53,CC(COc1ccc(CC2SC(=O)NC2=O)cc1)N1CC(COc2cccc(Cl)c2)OC1=O (stereo unspecified)
8,93 to 96,CCCCN(CCCC)S(=O)(=O)c1cc(C(=O)O)ccc1Cl
9,208 to 209,Cc1oc(-c2ccccc2)nc1COc1ccc2cc(CCCC3SC(=O)NC3=O)ccc2c1 (stereo unspecified)
10,110 to 111,CC(C)(C)c1cc(NC(=O)Nc2cccc(Oc3nc4ccccc4s3)c2)[nH]n1
11,59.5 to 61.5,COc1ccccc1C(=CC=O)c1ccccc1OC
12,180 to 181,Cn1nc(C(F)(F)F)cc1-c1ccc(CN2CCN(c3ccc(OCC4CCn5cc([N+](=O)[O-])nc5O4)cc3)CC2)s1 (stereo unspecified)
13,204,CC(C)N1CCc2[nH]c3ccc4scc(-c5ccccc5)c4c3c2C1
14,221,Cc1ccc(N2C(=O)C(O)=C(C(=O)c3ccccc3C)C2c2ccc(C(C)C)cc2)nn1 (stereo unspecified)
15,174 to 175,Cn1c2c(c3ccc(F)cc31)C(=O)CCC2
16,238 to 240,CC(=C1SC(=O)NC1=O)c1ccc(OCCOc2c(-c3ccc(Cl)cc3)n(C)c3ccccc3c2=O)cc1
17,123 to 124,CCOC(=O)C1(C(=O)OCC)CCC2(CC1)c1ccc(O)cc1CCN2C(=O)OCc1ccccc1
18,234,CCOC(=O)C1=C(N)NC2=C(C(=O)CCC2)C1c1cccc(C(=O)OCC)c1 (stereo unspecified)
19,182,O=C(NN1CCCCC1)c1ccc(-c2ccc(Cl)cc2)c(-c2ccc(Cl)cc2Cl)c1
20,98 to 100,Cc1ccccc1C(=O)N1CCc2nnc(NN)cc2C1
21,110 to 114,CCOC(=O)CCCCOc1ccc(-c2nc(N3CCOCC3)c3sc(CN4CCN(S(C)(=O)=O)CC4)cc3n2)cc1
22,197 to 199,CC(=O)OCC(=O)C1(O)C(C)CC2C3CC(C)C4=CC(=O)CCC4(C)C3=CCC21C (stereo unspecified)

row,Structure (SMILES),melting point [°C]
1,Cc1c([N+](=O)[O-])cc(S(F)(F)(F)(F)F)cc1[N+](=O)[O-],108 to 109
2,COc1cccc(C23CCN(C)CC2Cc2c([nH]c(C(=O)NCc4ccccc4)c2C)C3)c1 (stereo unspecified),162 to 164
3,O=C1[C@@H]2[C@H](O)CCN2C(=O)N1c1ccc(Br)c2ccccc12 (relative stereo),204 to 206
4,C=CCn1c2c(c3cc(OCCN(C)C)ccc31)C(=O)c1cc(OC)c(OC)cc1-2,138
5,CC1CCC2(C)C(CCC3C4CCC(=O)C4(C)CCC32)C1 (stereo unspecified),107 to 108
6,Cc1cccc2c(Nc3ccc(OCCN(CCCl)CCCl)cc3)c3cccc(C(=O)NCCN(C)C)c3nc12,185 to 186
7,COc1cccc([C@]23CCN(C)C(=O)[C@@H]2CCC(=O)C3)c1 (relative stereo),156 to 158
